From the NIST ThermoML archive (doi:10.1016/j.fluid.2018.10.006)
Where “and” joins values, the source holds several entries; their conditions need not be identical. Equal values may be shown once.

Conditions: Fluid (supercritical or subcritical phases), Coaxial cylinder method

CCCCCC [hexane]
thermal conductivity
Conditions | 508.17 K | 508.92 K
900 kPa | – | 0.03769 W/m/K
1100 kPa | – | 0.03855 W/m/K
1234 kPa | – | 0.03889 W/m/K
1401 kPa | – | 0.03933 W/m/K
1510 kPa | – | 0.03959 W/m/K
1603 kPa | – | 0.03996 W/m/K
1710 kPa | – | 0.04032 W/m/K
1806 kPa | – | 0.0407 W/m/K
1908 kPa | – | 0.04118 W/m/K
2006 kPa | – | 0.04167 W/m/K
2111 kPa | – | 0.04248 W/m/K
2210 kPa | – | 0.043 W/m/K
2300 kPa | – | 0.04353 W/m/K
2409 kPa | – | 0.04463 W/m/K
2509 kPa | – | 0.04579 W/m/K
2600 kPa | – | 0.04701 W/m/K
2650 kPa | – | 0.04777 W/m/K
2726 kPa | – | 0.0491 W/m/K
2744 kPa | – | 0.04937 W/m/K
2752 kPa | – | 0.04965 W/m/K
2763 kPa | – | 0.04993 W/m/K
2847 kPa | – | 0.05261 W/m/K
2898 kPa | – | 0.05429 W/m/K
2902 kPa | – | 0.05464 W/m/K
2927 kPa | – | 0.05568 W/m/K
2949 kPa | 0.0646 W/m/K | –
2953 kPa | 0.06509 W/m/K | –
2955 kPa | – | 0.05752 W/m/K
2956 kPa | 0.06509 W/m/K | –
2963 kPa | 0.06603 W/m/K | –
2966 kPa | 0.06628 W/m/K | –
2968 kPa | – | 0.05888 W/m/K
2970 kPa | 0.06681 W/m/K | –
2974 kPa | 0.06734 W/m/K | –
2975 kPa | – | 0.05948 W/m/K
2979 kPa | 0.06826 W/m/K | –
2982 kPa | 0.0687 W/m/K | –
2985 kPa | – | 0.06031 W/m/K
2988 kPa | – | 0.06094 W/m/K
2990 kPa | 0.07041 W/m/K | –
2991 kPa | 0.0707 W/m/K | –
2992 kPa | – | 0.06115 W/m/K
2995 kPa | 0.07129 W/m/K | –
2998 kPa | 0.07219 W/m/K | –
2999 kPa | – | 0.06202 W/m/K
3002 kPa | 0.07324 W/m/K | –
3004 kPa | – | 0.06246 W/m/K
3007 kPa | 0.07436 W/m/K | –
3009 kPa | 0.07488 W/m/K | –
3011 kPa | – | 0.06336 W/m/K
3013 kPa | 0.0758 W/m/K | –
3015 kPa | 0.07648 W/m/K | 0.06429 W/m/K
3017 kPa | 0.07703 W/m/K | –
3019 kPa | – | 0.06477 W/m/K
3021 kPa | 0.07822 W/m/K | –
3022 kPa | 0.07848 W/m/K | –
3024 kPa | 0.0792 W/m/K | –
3025 kPa | – | 0.06574 W/m/K
3026 kPa | 0.07994 W/m/K | –
3028 kPa | – | 0.06624 W/m/K
3029 kPa | 0.08069 W/m/K | –
3031 kPa | 0.08185 W/m/K | –
3033 kPa | 0.08287 W/m/K | 0.06751 W/m/K
3034 kPa | 0.08344 W/m/K | –
3035 kPa | – | 0.06804 W/m/K
3036 kPa | 0.08467 W/m/K | –
3037 kPa | 0.08467 W/m/K | –
3038 kPa | 0.08604 W/m/K | –
3039 kPa | 0.08566 W/m/K | 0.06857 W/m/K
3040 kPa | 0.08735 W/m/K | –
3041 kPa | 0.08647 W/m/K and 0.08824 W/m/K | –
3042 kPa | 0.09103 W/m/K | 0.06938 W/m/K
3043 kPa | 0.09201 W/m/K | –
3044 kPa | – | 0.06994 W/m/K
3045 kPa | 0.09401 W/m/K | –
3046 kPa | 0.09504 W/m/K | –
3047 kPa | 0.0961 W/m/K | –
3048 kPa | 0.09828 W/m/K | 0.07107 W/m/K
3049 kPa | 0.09941 W/m/K | –
3050 kPa | 0.1017 W/m/K | 0.0715 W/m/K
3051 kPa | 0.1048 W/m/K | –
3052 kPa | 0.1081 W/m/K | 0.07223 W/m/K
3053 kPa | 0.1119 W/m/K | –
3054 kPa | 0.1168 W/m/K | –
3055 kPa | 0.1226 W/m/K | 0.07344 W/m/K
3056 kPa | 0.1319 W/m/K | 0.07375 W/m/K
3057 kPa | 0.1487 W/m/K | –
3058 kPa | 0.1625 W/m/K | –
3059 kPa | 0.1438 W/m/K | 0.07469 W/m/K
3060 kPa | 0.1319 W/m/K | 0.07532 W/m/K
3061 kPa | 0.1231 W/m/K | –
3062 kPa | 0.1168 W/m/K | –
3063 kPa | 0.1123 W/m/K | 0.0763 W/m/K
3064 kPa | 0.1088 W/m/K | –
3065 kPa | 0.106 W/m/K | 0.07747 W/m/K
3066 kPa | 0.1039 W/m/K | –
3067 kPa | 0.1024 W/m/K | 0.07868 W/m/K
3068 kPa | 0.1006 W/m/K | 0.07903 W/m/K
3069 kPa | 0.09945 W/m/K | 0.0801 W/m/K
3070 kPa | 0.09832 W/m/K | 0.08047 W/m/K
3071 kPa | 0.09743 W/m/K | 0.08084 W/m/K
3073 kPa | 0.09613 W/m/K | 0.08254 W/m/K
3074 kPa | 0.09508 W/m/K | 0.08353 W/m/K
3075 kPa | 0.09456 W/m/K | 0.08412 W/m/K
3076 kPa | 0.09404 W/m/K | 0.08532 W/m/K
3077 kPa | 0.09323 W/m/K | 0.08593 W/m/K
3078 kPa | 0.09287 W/m/K | 0.08697 W/m/K
3079 kPa | 0.09237 W/m/K | 0.08803 W/m/K
3080 kPa | 0.09171 W/m/K | 0.08934 W/m/K
3081 kPa | 0.09127 W/m/K | 0.09069 W/m/K
3082 kPa | 0.09079 W/m/K | 0.09234 W/m/K
3083 kPa | 0.09032 W/m/K | 0.09384 W/m/K
3084 kPa | 0.08985 W/m/K | 0.09568 W/m/K
3085 kPa | 0.08955 W/m/K | 0.0977 W/m/K
3086 kPa | 0.0889 W/m/K | 0.1001 W/m/K
3087 kPa | 0.08845 W/m/K | 0.103 W/m/K
3088 kPa | 0.088 W/m/K | –
3089 kPa | 0.08755 W/m/K | –
3090 kPa | 0.08755 W/m/K | –
3091 kPa | 0.08711 W/m/K | –
3092 kPa | 0.08667 W/m/K | –
3094 kPa | 0.08581 W/m/K | –
3095 kPa | 0.08539 W/m/K | –
3100 kPa | 0.08334 W/m/K | –
3105 kPa | 0.08267 W/m/K | –
3108 kPa | 0.08217 W/m/K | –
3115 kPa | 0.08124 W/m/K | –
3120 kPa | 0.08025 W/m/K | –
3125 kPa | 0.08032 W/m/K | –
3130 kPa | 0.08032 W/m/K | –
3132 kPa | 0.08032 W/m/K | –
